# Results as given in patent US10501461B2, “Tyrosine amide derivatives as Rho-kinase inhibitors” (CHIESI FARMACEUTICI S.P.A., priority 2017, dated 2019).
# Columns and labels:
# Rho kinase 1 (ROCK-I) = Rho kinase 1 (ROCK-I) (Homo sapiens, UniProt Q13464); assay: In vitro Rho kinase inhibitory activity assay (ADP-Glo), Rho kinase 1; type: biochemical; details: 10 μM ATP, 25° C., expressed as range of activity
# Summary of the method: (§1)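 Kinase activity is measured as ADP production (ADP-Glo, luminescence) after 1 hour at 25 °C with 10 μM ATP and 2.5 μM Myelin Basic Protein, following 30 min enzyme–compound preincubation. Buffer is 40 mM Tris pH7.5, 20 mM MgCl2, 0.1 mg/ml BSA, 50 μM DTT.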
# Rho kinase 2 (ROCK-II) = Rho kinase 2 (ROCK-II) (Homo sapiens, UniProt O75116); assay: In vitro Rho kinase inhibitory activity assay (ADP-Glo), Rho kinase 2; type: biochemical; details: 10 μM ATP, 25° C., expressed as range of activity
# Summary of the method: as §1
# Rho kinase 1 (ROCK-I), sequence (Q13464 whole entry): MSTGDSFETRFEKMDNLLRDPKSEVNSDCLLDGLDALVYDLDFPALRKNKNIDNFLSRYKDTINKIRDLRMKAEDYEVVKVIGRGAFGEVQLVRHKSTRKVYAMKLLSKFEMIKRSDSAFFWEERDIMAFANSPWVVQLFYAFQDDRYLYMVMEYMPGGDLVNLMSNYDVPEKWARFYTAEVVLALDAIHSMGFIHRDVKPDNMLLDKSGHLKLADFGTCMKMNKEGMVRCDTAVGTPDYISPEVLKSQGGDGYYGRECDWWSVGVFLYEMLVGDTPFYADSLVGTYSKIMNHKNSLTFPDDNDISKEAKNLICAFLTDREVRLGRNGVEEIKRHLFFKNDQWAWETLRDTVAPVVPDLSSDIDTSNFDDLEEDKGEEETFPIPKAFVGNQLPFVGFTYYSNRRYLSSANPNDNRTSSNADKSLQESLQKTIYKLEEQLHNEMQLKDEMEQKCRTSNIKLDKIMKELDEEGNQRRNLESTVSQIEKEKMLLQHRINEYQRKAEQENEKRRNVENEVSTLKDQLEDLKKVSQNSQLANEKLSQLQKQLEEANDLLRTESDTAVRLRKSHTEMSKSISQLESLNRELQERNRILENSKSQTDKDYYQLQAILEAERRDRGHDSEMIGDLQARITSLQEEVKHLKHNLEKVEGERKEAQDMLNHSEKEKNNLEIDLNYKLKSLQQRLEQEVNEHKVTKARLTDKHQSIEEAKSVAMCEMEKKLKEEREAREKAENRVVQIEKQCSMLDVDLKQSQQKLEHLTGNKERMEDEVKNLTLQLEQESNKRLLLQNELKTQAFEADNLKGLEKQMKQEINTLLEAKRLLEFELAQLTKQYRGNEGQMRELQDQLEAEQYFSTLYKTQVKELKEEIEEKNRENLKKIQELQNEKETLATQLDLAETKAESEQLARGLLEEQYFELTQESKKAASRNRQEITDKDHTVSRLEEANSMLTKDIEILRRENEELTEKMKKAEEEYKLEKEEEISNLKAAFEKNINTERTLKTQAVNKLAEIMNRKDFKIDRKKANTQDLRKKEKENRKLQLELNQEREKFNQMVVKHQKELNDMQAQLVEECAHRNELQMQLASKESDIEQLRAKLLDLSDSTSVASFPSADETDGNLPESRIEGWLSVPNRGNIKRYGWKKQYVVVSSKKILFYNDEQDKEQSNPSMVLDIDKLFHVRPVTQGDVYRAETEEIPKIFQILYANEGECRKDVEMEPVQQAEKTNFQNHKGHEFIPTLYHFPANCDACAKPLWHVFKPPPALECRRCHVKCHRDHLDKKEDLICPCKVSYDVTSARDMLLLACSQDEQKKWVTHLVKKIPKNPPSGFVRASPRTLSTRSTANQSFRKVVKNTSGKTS
# Rho kinase 2 (ROCK-II), sequence (O75116 whole entry): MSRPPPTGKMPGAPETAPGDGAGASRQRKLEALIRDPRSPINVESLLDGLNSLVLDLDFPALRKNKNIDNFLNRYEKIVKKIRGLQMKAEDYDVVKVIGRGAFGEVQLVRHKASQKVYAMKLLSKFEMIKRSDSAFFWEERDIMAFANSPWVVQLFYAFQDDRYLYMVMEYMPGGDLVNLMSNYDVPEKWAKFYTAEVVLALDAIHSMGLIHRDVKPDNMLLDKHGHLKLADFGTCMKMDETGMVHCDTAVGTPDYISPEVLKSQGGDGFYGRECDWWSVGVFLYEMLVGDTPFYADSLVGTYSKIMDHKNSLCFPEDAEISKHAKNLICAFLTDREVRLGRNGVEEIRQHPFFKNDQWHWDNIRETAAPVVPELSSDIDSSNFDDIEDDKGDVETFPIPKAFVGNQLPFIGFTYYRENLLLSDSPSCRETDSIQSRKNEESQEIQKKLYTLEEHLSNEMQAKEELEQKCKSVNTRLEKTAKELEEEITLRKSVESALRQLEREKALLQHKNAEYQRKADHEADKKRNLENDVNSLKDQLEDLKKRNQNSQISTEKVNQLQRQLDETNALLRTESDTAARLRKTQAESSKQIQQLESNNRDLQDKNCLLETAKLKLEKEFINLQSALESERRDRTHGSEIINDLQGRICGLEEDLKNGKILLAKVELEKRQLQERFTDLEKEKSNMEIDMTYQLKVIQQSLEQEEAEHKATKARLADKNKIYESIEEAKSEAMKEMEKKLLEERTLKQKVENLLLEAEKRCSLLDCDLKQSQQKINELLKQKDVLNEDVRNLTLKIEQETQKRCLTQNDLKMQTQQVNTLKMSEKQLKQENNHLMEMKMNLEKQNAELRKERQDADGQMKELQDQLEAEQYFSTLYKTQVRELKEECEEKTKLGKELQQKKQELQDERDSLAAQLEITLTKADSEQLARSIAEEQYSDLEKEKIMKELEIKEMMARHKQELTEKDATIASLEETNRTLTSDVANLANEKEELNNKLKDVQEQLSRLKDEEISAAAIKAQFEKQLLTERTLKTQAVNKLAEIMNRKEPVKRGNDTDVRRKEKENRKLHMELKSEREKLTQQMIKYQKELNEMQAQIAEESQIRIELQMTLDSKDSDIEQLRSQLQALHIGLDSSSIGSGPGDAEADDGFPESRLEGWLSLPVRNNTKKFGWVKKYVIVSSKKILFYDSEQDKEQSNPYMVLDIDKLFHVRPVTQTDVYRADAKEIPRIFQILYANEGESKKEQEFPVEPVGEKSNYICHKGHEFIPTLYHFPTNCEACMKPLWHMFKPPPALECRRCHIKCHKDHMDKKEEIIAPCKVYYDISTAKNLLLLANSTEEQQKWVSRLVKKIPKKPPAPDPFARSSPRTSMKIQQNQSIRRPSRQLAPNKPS
Ki (Rho kinase 1 (ROCK-I)),Ki (Rho kinase 2 (ROCK-II)),Structure (SMILES)
< 3 nM,< 3 nM,"CN1CCC(NC(=O)[C@@H](N)Cc2ccc(Oc3ccnc4[nH]cc(-c5ccccc5)c34)c(F)c2)CC1 [Example 204, (S)-2-amino-3-(3-fluoro-4-((3-phenyl-1H-pyrrolo[2,3-b]pyridin-4-yl)oxy)phenyl)-N-(1-methylpiperidin-4-yl)propanamide]"
< 3 nM,< 3 nM,"CN1CCC(NC(=O)[C@@H](N)Cc2ccc(Oc3ccnc4[nH]cc(-c5cncs5)c34)c(F)c2)CC1 [Example 205, (S)-2-amino-3-(3-fluoro-4-((3-(thiazol-5-yl)-1H-pyrrolo[2,3-b]pyridin-4-yl)oxy)phenyl)-N-(1-methylpiperidin-4-yl)propanamide]"
< 3 nM,< 3 nM,"N[C@@H](Cc1ccc(Oc2ccnc3[nH]cc(-c4ccc(O)cc4)c23)cc1)C(=O)NCCc1ccncc1 [Example 206, (S)-2-amino-3-(4-((3-(4-hydroxyphenyl)-1H-pyrrolo[2,3-b]pyridin-4-yl)oxy)phenyl)-N-(2-(pyridin-4-yl)ethyl)propanamide]"
< 3 nM,< 3 nM,"N[C@@H](Cc1ccc(Oc2ccnc3[nH]cc(CO)c23)c(F)c1)C(=O)N1CCN(Cc2ccccc2)CC1 [Example 207, (S)-2-amino-1-(4-benzylpiperazin-1-yl)-3-(3-fluoro-4-((3-(hydroxymethyl)-1H-pyrrolo[2,3-b]pyridin-4-yl)oxy)phenyl)propan-1-one]"
< 3 nM,< 3 nM,"N[C@@H](Cc1ccc(Oc2ccnc3[nH]cc(CO)c23)c(F)c1)C(=O)NC1CCCCC1 [Example 208, (S)-2-amino-N-cyclohexyl-3-(3-fluoro-4-((3-(hydroxymethyl)-1H-pyrrolo[2,3-b]pyridin-4-yl)oxy)phenyl)-propanamide]"
3 to 30 nM,< 3 nM,"N[C@@H](Cc1ccc(Oc2ccnc3[nH]cc(CO)c23)c(F)c1)C(=O)NC1CCOCC1 [Example 209, (S)-2-amino-3-(3-fluoro-4-((3-(hydroxymethyl)-1H-pyrrolo[2,3-b]pyridin-4-yl)oxy)phenyl)-N-(tetrahydro-2H-pyran-4-yl)propanamide]"
3 to 30 nM,3 to 30 nM,"CN1CCC(NC(=O)[C@@H](N)Cc2ccc(Oc3ccnc4[nH]cc(CO)c34)c(F)c2)CC1 [Example 210, (S)-2-amino-3-(3-fluoro-4-((3-(hydroxymethyl)-1H-pyrrolo[2,3-b]pyridin-4-yl)oxy)phenyl)-N-(1-methylpiperidin-4-yl)propanamide]"
3 to 30 nM,3 to 30 nM,"CN1C[C@@H]2C[C@H]1CN2C(=O)[C@@H](N)Cc1ccc(Oc2ccnc3[nH]cc(CO)c23)c(F)c1 [Example 211, (S)-2-amino-3-(3-fluoro-4-((3-(hydroxymethyl)-1H-pyrrolo[2,3-b]pyridin-4-yl)oxy)phenyl)-1-((1S,4S)-5-methyl-2,5-diazabicyclo[2.2.1]-heptan-2-yl)propan-1-one]"
3 to 30 nM,3 to 30 nM,"CN(C)CCCNC(=O)[C@@H](N)Cc1ccc(Oc2ccnc3[nH]cc(CO)c23)c(F)c1 [Example 212, (S)-2-amino-N-(3-(dimethylamino)-propyl)-3-(3-fluoro-4-((3-(hydroxymethyl)-1H-pyrrolo[2,3-b]pyridin-4-yl)oxy)phenyl)propanamide]"
< 3 nM,< 3 nM,"N[C@@H](Cc1ccc(Oc2ccnc3[nH]cc(CO)c23)c(F)c1)C(=O)N1CCN(Cc2ccccn2)CC1 [Example 213, (S)-2-amino-3-(3-fluoro-4-((3-(hydroxymethyl)-1H-pyrrolo[2,3-b]pyridin-4-yl)oxy)phenyl)-1-(4-(pyridin-2-ylmethyl)piperazin-1-yl)propan-1-one]"
3 to 30 nM,3 to 30 nM,"COCc1c[nH]c2nccc(Oc3ccc(C[C@H](N)C(=O)NC4CCOCC4)cc3F)c12 [Example 214, (S)-2-amino-3-(3-fluoro-4-((3-(methoxymethyl)-1H-pyrrolo[2,3-b]pyridin-4-yl)oxy)phenyl)-N-(tetrahydro-2H-pyran-4-yl)propanamide]"
3 to 30 nM,3 to 30 nM,"COCc1c[nH]c2nccc(Oc3ccc(C[C@H](N)C(=O)N4CCN(C)CC4)cc3F)c12 [Example 215, (S)-2-amino-3-(3-fluoro-4-((3-(methoxymethyl)-1H-pyrrolo[2,3-b]pyridin-4-yl)oxy)phenyl)-1-(4-methylpiperazin-1-yl)propan-1-one]"
< 3 nM,< 3 nM,"N[C@@H](Cc1ccc(Oc2ccnc3[nH]cc(CCO)c23)cc1)C(=O)N1CCN(Cc2ccccc2)CC1 [Example 216, (S)-2-amino-1-(4-benzylpiperazin-1-yl)-3-(4-((3-(2-hydroxyethyl)-1H-pyrrolo[2,3-b]pyridin-4-yl)oxy)phenyl)propan-1-one]"
< 3 nM,< 3 nM,"N[C@@H](Cc1ccc(Oc2ccnc3[nH]cc(C#CCO)c23)cc1)C(=O)NC1CCCCC1 [Example 217, (S)-2-amino-N-cyclohexyl-3-(4-((3-(3-hydroxyprop-1-yn-1-yl)-1H-pyrrolo[2,3-b]pyridin-4-yl)oxy)phenyl)propanamide]"
< 3 nM,< 3 nM,"N#Cc1c[nH]c2nccc(Oc3ccc(C[C@H](N)C(=O)NC4CCOCC4)cc3)c12 [Example 218, (S)-2-amino-3-(4-((3-cyano-1H-pyrrolo[2,3-b]pyridin-4-yl)oxy)phenyl)-N-(tetrahydro-2H-pyran-4-yl)propanamide]"
< 3 nM,< 3 nM,"N#Cc1c[nH]c2nccc(Oc3ccc(C[C@H](N)C(=O)NC4CCCCC4)cc3)c12 [Example 219, (S)-2-amino-3-(4-((3-cyano-1H-pyrrolo[2,3-b]pyridin-4-yl)oxy)phenyl)-N-cyclohexylpropanamide]"
< 3 nM,< 3 nM,"N#Cc1c[nH]c2nccc(Oc3ccc(C[C@H](N)C(=O)N4CCN(Cc5ccccc5)CC4)cc3F)c12 [Example 220, (S)-4-(4-(2-amino-3-(4-benzylpiperazin-1-yl)-3-oxopropyl)-2-fluorophenoxy)-1H-pyrrolo[2,3-b]pyridine-3-carbonitrile]"
< 3 nM,< 3 nM,"N#Cc1c[nH]c2nccc(Oc3ccc(C[C@H](N)C(=O)NC4CCCCC4)cc3F)c12 [Example 221, (S)-2-amino-3-(4-((3-cyano-1H-pyrrolo[2,3-b]pyridin-4-yl)oxy)-3-fluorophenyl)-N-cyclohexylpropanamide]"
< 3 nM,< 3 nM,"CN1CCC(NC(=O)[C@@H](N)Cc2ccc(Oc3ccnc4[nH]cc(C#N)c34)c(F)c2)CC1 [Example 222, (S)-2-amino-3-(4-((3-cyano-1H-pyrrolo[2,3-b]pyridin-4-yl)oxy)-3-fluorophenyl)-N-(1-methylpiperidin-4-yl)propanamide]"
< 3 nM,< 3 nM,"CN1C[C@@H]2C[C@H]1CN2C(=O)[C@@H](N)Cc1ccc(Oc2ccnc3[nH]cc(C#N)c23)c(F)c1 [Example 223, 4-(4-((S)-2-amino-3-((1S,4S)-5-methyl-2,5-diazabicyclo[2.2.1]heptan-2-yl)-3-oxopropyl)-2-fluorophenoxy)-1H-pyrrolo[2,3-b]pyridine-3-carbonitrile]"
< 3 nM,< 3 nM,"N#Cc1c[nH]c2nccc(Oc3ccc(C[C@H](N)C(=O)N4CCN(Cc5ccccn5)CC4)cc3F)c12 [Example 224, (S)-4-(4-(2-amino-3-oxo-3-(4-(pyridin-2-ylmethyl)piperazin-1-yl)propyl)-2-fluorophenoxy)-1H-pyrrolo[2,3-b]pyridine-3-carbonitrile]"
> 30 nM,> 30 nM,"N[C@@H](Cc1ccc(Oc2ncnc3[nH]ccc23)cc1)C(=O)NC1CCCCC1 [Example 225, (S)-3-(4-((7H-pyrrolo[2,3-d]pyrimidin-4-yl)oxy)phenyl)-2-amino-N-cyclohexylpropanamide]"
3 to 30 nM,3 to 30 nM,"N[C@@H](Cc1ccc(Oc2ncnc3[nH]ccc23)cc1)C(=O)N1CCN(Cc2ccccc2)CC1 [Example 226, (S)-3-(4-((7H-pyrrolo[2,3-d]pyrimidin-4-yl)oxy)phenyl)-2-amino-1-(4-benzylpiperazin-1-yl)propan-1-one]"
> 30 nM,> 30 nM,"N[C@@H](Cc1ccc(Oc2ccnc3[nH]ccc23)cn1)C(=O)NC1CCCCC1 [Example 227, (S)-3-(5-((1H-pyrrolo[2,3-b]pyridin-4-yl)oxy)pyridin-2-yl)-2-amino-N-cyclohexylpropanamide]"
> 30 nM,3 to 30 nM,"N[C@@H](Cc1ccc(Oc2ccnc3[nH]ccc23)cn1)C(=O)N1CCN(Cc2ccccc2)CC1 [Example 228, (S)-3-(5-((1H-pyrrolo[2,3-b]pyridin-4-yl)oxy)pyridin-2-yl)-2-amino-1-(4-benzylpiperazin-1-yl)propan-1-one]"
3 to 30 nM,3 to 30 nM,"N[C@H](Cc1cc(F)c(Oc2ccnc3[nH]ccc23)c(F)c1)C(=O)NC1CCCCC1 [Example 229, (R)-3-(4-((1H-pyrrolo[2,3-b]pyridin-4-yl)oxy)-3,5-difluorophenyl)-2-amino-N-cyclohexylpropanamide]"
